Legend:
PIK3CA (human) [1] = target: PIK3CA (human) (UniProt P42336); assay: Enzyme Assay
PIK3CD (Human) [2] = target: PIK3CD (Human) (UniProt O00329); assay: Enzyme Assay
PIK3CG (human) [3] = target: PIK3CG (human) (UniProt P48736); assay: Enzyme Assay
PIK3CA (human) [4] = target: PIK3CA (human) (UniProt P42336); assay: Cell-Based Assay; conditions: rat-1
PIK3CD (Human) [5] = target: PIK3CD (Human) (UniProt O00329); assay: Cell-Based Assay; conditions: rat-1
PIK3CG (human) [6] = target: PIK3CG (human) (UniProt P48736); assay: Cell-Based Assay; conditions: u937

Chain of PIK3CG (human) (P48736 whole entry, looked up): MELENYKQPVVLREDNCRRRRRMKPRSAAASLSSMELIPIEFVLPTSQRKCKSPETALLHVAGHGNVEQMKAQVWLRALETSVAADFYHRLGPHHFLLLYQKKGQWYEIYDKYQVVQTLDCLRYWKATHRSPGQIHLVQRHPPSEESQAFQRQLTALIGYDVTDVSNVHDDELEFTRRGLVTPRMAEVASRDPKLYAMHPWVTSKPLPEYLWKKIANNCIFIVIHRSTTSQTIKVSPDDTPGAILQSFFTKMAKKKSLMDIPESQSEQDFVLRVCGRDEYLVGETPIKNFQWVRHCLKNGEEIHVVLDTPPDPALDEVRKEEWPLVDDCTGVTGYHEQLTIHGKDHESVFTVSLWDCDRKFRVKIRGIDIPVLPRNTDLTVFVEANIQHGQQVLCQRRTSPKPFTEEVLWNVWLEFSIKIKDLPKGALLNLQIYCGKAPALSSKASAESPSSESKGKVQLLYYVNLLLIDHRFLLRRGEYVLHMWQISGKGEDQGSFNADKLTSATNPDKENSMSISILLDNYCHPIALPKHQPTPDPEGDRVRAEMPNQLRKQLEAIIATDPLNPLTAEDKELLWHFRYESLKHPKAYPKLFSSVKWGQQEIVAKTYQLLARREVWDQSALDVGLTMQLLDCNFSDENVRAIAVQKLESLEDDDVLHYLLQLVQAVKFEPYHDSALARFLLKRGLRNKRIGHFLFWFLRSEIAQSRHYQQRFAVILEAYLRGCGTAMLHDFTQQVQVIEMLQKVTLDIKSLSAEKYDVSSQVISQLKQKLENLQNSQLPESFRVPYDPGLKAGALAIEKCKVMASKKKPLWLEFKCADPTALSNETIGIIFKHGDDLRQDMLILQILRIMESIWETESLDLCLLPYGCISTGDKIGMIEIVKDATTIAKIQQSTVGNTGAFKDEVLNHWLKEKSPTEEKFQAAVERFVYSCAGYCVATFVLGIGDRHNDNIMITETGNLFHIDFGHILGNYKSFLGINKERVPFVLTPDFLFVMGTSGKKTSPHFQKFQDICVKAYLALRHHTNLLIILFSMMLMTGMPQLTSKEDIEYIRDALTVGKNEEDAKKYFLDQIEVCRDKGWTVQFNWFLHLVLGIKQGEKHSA
Chain of PIK3CA (human) (P42336 whole entry, looked up): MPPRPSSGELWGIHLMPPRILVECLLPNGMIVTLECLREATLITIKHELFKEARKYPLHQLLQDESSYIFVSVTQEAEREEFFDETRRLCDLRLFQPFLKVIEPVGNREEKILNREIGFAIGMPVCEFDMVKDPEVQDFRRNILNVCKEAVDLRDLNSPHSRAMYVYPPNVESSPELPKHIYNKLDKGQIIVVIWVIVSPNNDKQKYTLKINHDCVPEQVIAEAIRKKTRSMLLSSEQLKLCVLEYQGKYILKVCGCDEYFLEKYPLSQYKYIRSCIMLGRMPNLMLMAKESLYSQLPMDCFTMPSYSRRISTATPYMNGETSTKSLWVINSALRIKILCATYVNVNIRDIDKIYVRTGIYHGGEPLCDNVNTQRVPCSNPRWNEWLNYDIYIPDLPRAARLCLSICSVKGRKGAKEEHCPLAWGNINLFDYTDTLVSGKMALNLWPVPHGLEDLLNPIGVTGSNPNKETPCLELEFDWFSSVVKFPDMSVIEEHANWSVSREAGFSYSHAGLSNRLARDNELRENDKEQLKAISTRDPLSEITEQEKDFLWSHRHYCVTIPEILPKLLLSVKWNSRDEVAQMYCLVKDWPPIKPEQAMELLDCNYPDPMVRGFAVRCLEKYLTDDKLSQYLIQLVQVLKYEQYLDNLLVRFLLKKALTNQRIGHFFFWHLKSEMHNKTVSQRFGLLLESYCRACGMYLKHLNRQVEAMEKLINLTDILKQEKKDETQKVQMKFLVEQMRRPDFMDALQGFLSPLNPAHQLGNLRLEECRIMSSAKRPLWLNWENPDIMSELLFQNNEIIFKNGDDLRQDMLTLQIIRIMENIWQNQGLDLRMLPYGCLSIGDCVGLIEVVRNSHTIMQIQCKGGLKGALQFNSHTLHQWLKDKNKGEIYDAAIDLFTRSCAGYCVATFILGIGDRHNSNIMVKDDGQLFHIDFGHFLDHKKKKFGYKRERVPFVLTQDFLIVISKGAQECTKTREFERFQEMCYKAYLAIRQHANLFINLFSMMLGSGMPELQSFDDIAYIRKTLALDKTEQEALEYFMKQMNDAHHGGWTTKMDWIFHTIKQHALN
Chain of PIK3CD (Human) (O00329 whole entry, looked up): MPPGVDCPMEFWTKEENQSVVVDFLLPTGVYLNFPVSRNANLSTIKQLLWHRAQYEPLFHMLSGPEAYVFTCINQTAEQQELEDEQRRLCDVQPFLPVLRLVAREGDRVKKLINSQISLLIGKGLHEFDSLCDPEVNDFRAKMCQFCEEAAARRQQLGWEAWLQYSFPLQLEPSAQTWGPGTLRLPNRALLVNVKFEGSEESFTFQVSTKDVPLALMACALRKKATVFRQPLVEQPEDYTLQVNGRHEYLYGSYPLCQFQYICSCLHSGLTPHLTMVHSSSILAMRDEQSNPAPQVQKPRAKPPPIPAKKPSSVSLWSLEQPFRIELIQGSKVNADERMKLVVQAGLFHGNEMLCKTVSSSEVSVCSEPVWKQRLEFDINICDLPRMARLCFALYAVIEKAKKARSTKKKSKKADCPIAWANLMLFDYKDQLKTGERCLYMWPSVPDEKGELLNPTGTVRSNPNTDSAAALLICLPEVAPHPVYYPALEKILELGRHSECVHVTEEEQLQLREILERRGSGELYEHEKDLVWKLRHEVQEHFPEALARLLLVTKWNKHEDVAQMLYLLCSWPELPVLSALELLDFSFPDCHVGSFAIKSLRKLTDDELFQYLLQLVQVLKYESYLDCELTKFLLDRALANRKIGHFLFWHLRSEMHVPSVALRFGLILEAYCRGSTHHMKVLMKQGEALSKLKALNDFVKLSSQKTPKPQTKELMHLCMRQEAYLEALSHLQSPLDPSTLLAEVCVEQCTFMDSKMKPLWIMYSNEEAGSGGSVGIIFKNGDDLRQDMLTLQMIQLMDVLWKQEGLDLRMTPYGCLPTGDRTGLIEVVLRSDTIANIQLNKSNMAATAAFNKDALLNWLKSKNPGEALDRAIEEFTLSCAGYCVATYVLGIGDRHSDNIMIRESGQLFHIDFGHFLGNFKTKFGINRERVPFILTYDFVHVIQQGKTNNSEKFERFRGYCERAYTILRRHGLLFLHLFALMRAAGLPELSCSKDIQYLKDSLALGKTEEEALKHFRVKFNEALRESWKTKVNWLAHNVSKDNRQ

IC50 (PIK3CA (human) [1]) [nM]	IC50 (PIK3CD (Human) [2]) [nM]	IC50 (PIK3CG (human) [3]) [nM]	IC50 (PIK3CA (human) [4]) [nM]	IC50 (PIK3CD (Human) [5]) [nM]	IC50 (PIK3CG (human) [6]) [nM]	SMILES
4600	42	63	> 10000	65	1820	Nc1nc(N2CCC[C@H]2c2nc3cccc(Cl)c3c(=O)n2N2CCOCC2)c2nc[nH]c2n1
5100	7	1200	4600	38	821	CS(=O)(=O)c1cccc2nc([C@@H]3CCCN3c3ncnc(N)c3C#N)n(-c3ccccc3)c(=O)c12
590	< 3	19	4230	5	37	CC1(n2c([C@@H]3CCCN3c3ncnc(N)c3C#N)nc3cccc(Cl)c3c2=O)CC1
7200	140	78	> 10000	204	793	CO[C@H]1C[C@@H](c2nc3cccc(Cl)c3c(=O)n2-c2ccccc2)N(c2nc(N)nn3ccnc23)C1
2000	< 3	44	3690	14	144	N#Cc1c(N)ncnc1N1OCC[C@H]1c1nc2cccc(Cl)c2c(=O)n1-c1ccccc1
790	18	71	1790	15	27	Cc1nc(N)nc(N2CCC[C@H]2c2nc3cccc(Cl)c3c(=O)n2N2CCOCC2)c1C#N
3300	26	31	> 10000	90	31	Nc1nc(N2C[C@@H](O)C[C@H]2c2nc3cccc(C(F)(F)F)c3c(=O)n2-c2ccccc2)c2nccn2n1
3600	< 3	68	5230	33	88	O=c1c2c(C(F)(F)F)cccc2nc([C@@H]2C[C@H](F)CN2c2ncnc3[nH]cnc23)n1-c1ccccc1
700	43	97	7130	30	33	Cc1nc(N)nc(N2C[C@@H](O)C[C@H]2c2nc3ccc(F)c(F)c3c(=O)n2-c2ccccc2)c1C#N
1100	13	75	4600	42	343	Cc1nc(N)nc(N2CCC[C@H]2c2nc3cccc(S(C)(=O)=O)c3c(=O)n2-c2ccccc2)c1C#N
2340	5	129	8120	14	> 10000	N#Cc1c(N)ncnc1N1CSC[C@H]1c1nc2cccc(Cl)c2c(=O)n1-c1ccccc1
5210	< 3	70	2200	13	27	Cc1ccccc1-n1c([C@@H]2CCCN2c2ncnc(N)c2C#N)nc2cccc(Cl)c2c1=O
2800	67	93	> 10000	8040	312	Nc1nc(N2CCC[C@H]2c2nc3cccc(C(F)(F)F)c3c(=O)n2-c2ccccc2)c2nccn2n1
4000	96	1300	> 10000	45	1590	N#Cc1c(N)ncnc1N1C[C@@H](O)C[C@H]1c1nc2ccc(F)c(F)c2c(=O)n1-c1ccccc1
1000	12	86	6240	9	24	Cc1nc(N)nc(N2C[C@@H](O)C[C@H]2c2nc3cccc(Cl)c3c(=O)n2-c2cccnc2)c1C#N
330	21	64	2870	9	115	Cc1nc(N)nc(N2CCC[C@H]2c2nc3cccc(F)c3c(=O)n2-c2ccccc2)c1C#N
5600	19	660	9950	38	718	N#Cc1c(N)ncnc1N1CCC[C@H]1c1nc2cccc(C(F)(F)F)c2c(=O)n1-c1cccc(F)c1
9300	82	720	> 10000	29	146	N#Cc1c(N)ncnc1N1C[C@@H](O)C[C@H]1c1nc2cccc(C(F)(F)F)c2c(=O)n1-c1cccc(F)c1
1400	5	19	4310	21	178	O=c1c2c(Cl)cccc2nc([C@@H]2C[C@H](O)CN2c2ncnc3[nH]cnc23)n1-c1ccccc1
4400	64	48	> 10000	240	76	Nc1nc(N2C[C@@H](F)C[C@H]2c2nc3cccc(C(F)(F)F)c3c(=O)n2-c2cccnc2)c2nc[nH]c2n1

IC50 (PIK3CA (human) [1]) [nM]	IC50 (PIK3CD (Human) [2]) [nM]	IC50 (PIK3CG (human) [3]) [nM]	IC50 (PIK3CA (human) [4]) [nM]	IC50 (PIK3CD (Human) [5]) [nM]	IC50 (PIK3CG (human) [6]) [nM]	SMILES
> 10000	82	2100	> 10000	23	709	N#Cc1c(N)ncnc1N1C[C@@H](O)C[C@H]1c1nc2cccc(F)c2c(=O)n1-c1ccccc1
2800	47	990	8020	27	26	N#Cc1c(N)ncnc1N1C[C@@H](O)C[C@H]1c1nc2ccc(F)c(Cl)c2c(=O)n1-c1ccccc1
3600	85	110	8120	349	886	Nc1nc(N2CCC[C@H]2c2nc3cccc(Cl)c3c(=O)n2C2CC2)c2nc[nH]c2n1
698	221	85	4230	86	219	Cc1nc(N)nc(N2C[C@@H](O)C[C@H]2c2nc3cccc(Cl)c3c(=O)n2C2CC2)c1C#N
1700	24	80	6570	16	10	Cc1nc(N)nc(N2C[C@@H](O)C[C@H]2c2nc3cccc(C(F)(F)F)c3c(=O)n2-c2cccc(F)c2)c1C#N
1300	18	9	3300	29	45	Nc1nc(N2C[C@@H](F)C[C@H]2c2nc3cccc(C(F)(F)F)c3c(=O)n2-c2ccccc2)c2nc[nH]c2n1
1000	11	27	5480	43	352	CO[C@H]1C[C@@H](c2nc3cccc(Cl)c3c(=O)n2-c2ccccc2)N(c2ncnc3[nH]cnc23)C1
2200	10	370	2720	7	331	Cc1c(F)ccc2nc([C@@H]3C[C@H](O)CN3c3ncnc(N)c3C#N)n(-c3ccccc3)c(=O)c12
1300	18	90	6600	24	114	Cc1nc(N)nc(N2C[C@@H](O)C[C@H]2c2nc3cccc(F)c3c(=O)n2-c2ccccc2)c1C#N
> 10000	360	370	> 10000	939	> 10000	CS(=O)(=O)N1CC[C@H](n2c([C@@H]3CCCN3c3ncnc4[nH]cnc34)nc3cccc(Cl)c3c2=O)C1
2800	12	140	> 10000	62	261	N#Cc1c(N)ncnc1N1CCC[C@H]1c1nc2cccc(C(F)(F)F)c2c(=O)n1-c1ccccc1
1500	8	24	> 10000	77	675	Nc1nc(N2CCC[C@H]2c2nc3cccc(Cl)c3c(=O)n2-c2cccnc2)c2nc[nH]c2n1
2600	22	190	> 10000	130	399	Nc1nc(N2CCC[C@H]2c2nc3cccc(Cl)c3c(=O)n2N2CCOCC2)c2nccn2n1
560	7	25	4020	43	74	N#Cc1c(N)ncnc1N1CCC[C@H]1c1nc2cccc(Cl)c2c(=O)n1C1CC1
1430	3	110	> 10000	15	494	N#Cc1c(N)ncnc1N1CCC[C@H]1c1nc2cccc(O)c2c(=O)n1-c1ccccc1
450	75	140	4670	45	70	Cc1nc(N)nc(N2C[C@@H](O)C[C@H]2c2nc3cccc(OC(F)F)c3c(=O)n2-c2ccccc2)c1C#N
6600	390	320	> 10000	141	113	N#Cc1cnc(N)nc1N1C[C@@H](O)C[C@H]1c1nc2cccc(C(F)(F)F)c2c(=O)n1-c1ccccc1
5100	4	81	4690	51	215	O=c1c2c(Cl)cccc2nc([C@@H]2CCCN2c2ncnc3scnc23)n1-c1ccccc1
4500	84	7200	> 10000	65	> 10000	CS(=O)(=O)c1c(F)ccc2nc([C@@H]3CCCN3c3ncnc(N)c3C#N)n(-c3ccccc3)c(=O)c12
> 10000	76	5200	> 10000	> 10000	382	COc1cccc2nc([C@@H]3CCCN3c3ncnc(N)c3C#N)n(-c3ccccc3)c(=O)c12
